# pKd: −log10 of the molar value. Where “and” joins values, the source holds several entries; their conditions need not be identical. Equal entries are not always repeated.
# What was measured:
# Assay in all cases: biochemical
# Parameters in all cases: endogenous in cells; host or cells: K562 cell extract; species or system K562 (extract); replicate k of n = 2 (each experiment ID is one independent experiment; two experiment IDs per compound)
# Details in all cases: read-out: KDapp
# AXL = target: T1, AXL (Homo sapiens, UniProt P30530)
# T1 sequence (P30530 1-894): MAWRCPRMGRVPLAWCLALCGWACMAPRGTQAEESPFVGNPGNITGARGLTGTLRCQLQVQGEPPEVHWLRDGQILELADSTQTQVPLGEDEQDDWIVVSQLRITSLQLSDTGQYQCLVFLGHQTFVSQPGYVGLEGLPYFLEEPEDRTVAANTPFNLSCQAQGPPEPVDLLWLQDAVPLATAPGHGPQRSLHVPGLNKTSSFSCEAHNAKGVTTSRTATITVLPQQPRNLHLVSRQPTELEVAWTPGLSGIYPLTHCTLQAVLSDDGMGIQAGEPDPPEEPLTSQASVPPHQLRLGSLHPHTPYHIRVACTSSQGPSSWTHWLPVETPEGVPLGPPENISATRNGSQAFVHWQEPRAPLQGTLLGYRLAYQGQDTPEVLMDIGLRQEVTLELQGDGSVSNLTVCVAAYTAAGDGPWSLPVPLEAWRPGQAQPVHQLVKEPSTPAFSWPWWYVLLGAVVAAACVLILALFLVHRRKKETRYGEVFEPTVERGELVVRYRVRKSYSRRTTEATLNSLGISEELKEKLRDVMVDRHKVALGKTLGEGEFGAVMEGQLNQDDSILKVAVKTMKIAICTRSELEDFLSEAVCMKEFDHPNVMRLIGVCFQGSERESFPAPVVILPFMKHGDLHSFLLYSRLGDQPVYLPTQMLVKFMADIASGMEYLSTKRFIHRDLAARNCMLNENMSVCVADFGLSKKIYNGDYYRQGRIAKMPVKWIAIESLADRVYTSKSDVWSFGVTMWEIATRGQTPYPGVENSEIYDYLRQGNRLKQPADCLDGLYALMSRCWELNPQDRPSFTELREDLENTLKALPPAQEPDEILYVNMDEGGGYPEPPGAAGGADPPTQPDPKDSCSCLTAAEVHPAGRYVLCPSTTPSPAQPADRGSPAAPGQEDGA
# CHEK1 = target: T2, CHEK1 (Homo sapiens, UniProt O14757)
# T2 sequence (O14757 1-476): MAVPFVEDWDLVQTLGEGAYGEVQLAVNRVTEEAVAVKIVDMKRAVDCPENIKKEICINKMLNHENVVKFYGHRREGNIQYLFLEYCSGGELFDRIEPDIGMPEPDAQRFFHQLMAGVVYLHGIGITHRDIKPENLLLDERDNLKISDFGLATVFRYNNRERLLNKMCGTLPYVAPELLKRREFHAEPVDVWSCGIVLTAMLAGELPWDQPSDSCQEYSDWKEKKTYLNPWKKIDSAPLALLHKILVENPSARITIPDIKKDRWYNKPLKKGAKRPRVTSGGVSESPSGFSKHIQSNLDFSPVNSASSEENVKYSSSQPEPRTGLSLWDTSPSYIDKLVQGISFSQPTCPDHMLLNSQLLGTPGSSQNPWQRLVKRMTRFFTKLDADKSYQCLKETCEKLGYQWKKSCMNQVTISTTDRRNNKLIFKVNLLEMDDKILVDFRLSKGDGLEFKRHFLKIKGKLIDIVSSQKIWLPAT
# ERN1 = ERN1 (Homo sapiens, UniProt O75460)
# TAOK2 = target: T3, TAOK2 (Homo sapiens, UniProt Q9UL54)
# T3 sequence (Q9UL54 1-1235): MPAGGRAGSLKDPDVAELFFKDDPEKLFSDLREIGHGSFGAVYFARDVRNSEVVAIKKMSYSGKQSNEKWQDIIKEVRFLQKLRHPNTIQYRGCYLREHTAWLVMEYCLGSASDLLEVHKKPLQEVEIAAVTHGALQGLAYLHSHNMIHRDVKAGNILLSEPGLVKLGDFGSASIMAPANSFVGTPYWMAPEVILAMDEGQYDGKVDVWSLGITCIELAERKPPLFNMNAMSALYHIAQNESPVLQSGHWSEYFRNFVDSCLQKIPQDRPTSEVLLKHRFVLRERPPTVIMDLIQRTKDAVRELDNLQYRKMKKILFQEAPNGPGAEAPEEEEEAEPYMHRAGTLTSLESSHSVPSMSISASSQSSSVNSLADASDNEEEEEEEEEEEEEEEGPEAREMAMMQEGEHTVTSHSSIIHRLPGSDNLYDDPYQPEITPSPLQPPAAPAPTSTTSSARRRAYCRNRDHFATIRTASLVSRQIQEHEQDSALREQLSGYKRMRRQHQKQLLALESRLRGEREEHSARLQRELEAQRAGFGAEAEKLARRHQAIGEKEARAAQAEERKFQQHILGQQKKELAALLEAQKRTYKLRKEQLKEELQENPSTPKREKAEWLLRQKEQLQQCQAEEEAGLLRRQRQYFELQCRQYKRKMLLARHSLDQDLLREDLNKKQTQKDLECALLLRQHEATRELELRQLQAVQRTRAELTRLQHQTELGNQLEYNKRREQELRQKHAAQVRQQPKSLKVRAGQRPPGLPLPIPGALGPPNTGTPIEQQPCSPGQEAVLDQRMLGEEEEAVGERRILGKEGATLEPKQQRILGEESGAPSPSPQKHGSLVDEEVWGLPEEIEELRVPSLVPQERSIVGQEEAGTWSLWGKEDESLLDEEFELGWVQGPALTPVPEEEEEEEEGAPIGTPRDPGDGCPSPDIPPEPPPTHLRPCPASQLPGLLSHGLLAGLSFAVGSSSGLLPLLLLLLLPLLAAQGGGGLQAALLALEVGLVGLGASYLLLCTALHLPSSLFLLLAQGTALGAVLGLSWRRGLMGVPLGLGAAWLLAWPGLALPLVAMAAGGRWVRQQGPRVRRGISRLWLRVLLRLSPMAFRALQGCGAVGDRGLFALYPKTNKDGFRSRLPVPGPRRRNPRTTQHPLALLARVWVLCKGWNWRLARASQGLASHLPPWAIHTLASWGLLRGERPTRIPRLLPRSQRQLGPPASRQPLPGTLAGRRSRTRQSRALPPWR
# ERN1, sequence (O75460 whole entry): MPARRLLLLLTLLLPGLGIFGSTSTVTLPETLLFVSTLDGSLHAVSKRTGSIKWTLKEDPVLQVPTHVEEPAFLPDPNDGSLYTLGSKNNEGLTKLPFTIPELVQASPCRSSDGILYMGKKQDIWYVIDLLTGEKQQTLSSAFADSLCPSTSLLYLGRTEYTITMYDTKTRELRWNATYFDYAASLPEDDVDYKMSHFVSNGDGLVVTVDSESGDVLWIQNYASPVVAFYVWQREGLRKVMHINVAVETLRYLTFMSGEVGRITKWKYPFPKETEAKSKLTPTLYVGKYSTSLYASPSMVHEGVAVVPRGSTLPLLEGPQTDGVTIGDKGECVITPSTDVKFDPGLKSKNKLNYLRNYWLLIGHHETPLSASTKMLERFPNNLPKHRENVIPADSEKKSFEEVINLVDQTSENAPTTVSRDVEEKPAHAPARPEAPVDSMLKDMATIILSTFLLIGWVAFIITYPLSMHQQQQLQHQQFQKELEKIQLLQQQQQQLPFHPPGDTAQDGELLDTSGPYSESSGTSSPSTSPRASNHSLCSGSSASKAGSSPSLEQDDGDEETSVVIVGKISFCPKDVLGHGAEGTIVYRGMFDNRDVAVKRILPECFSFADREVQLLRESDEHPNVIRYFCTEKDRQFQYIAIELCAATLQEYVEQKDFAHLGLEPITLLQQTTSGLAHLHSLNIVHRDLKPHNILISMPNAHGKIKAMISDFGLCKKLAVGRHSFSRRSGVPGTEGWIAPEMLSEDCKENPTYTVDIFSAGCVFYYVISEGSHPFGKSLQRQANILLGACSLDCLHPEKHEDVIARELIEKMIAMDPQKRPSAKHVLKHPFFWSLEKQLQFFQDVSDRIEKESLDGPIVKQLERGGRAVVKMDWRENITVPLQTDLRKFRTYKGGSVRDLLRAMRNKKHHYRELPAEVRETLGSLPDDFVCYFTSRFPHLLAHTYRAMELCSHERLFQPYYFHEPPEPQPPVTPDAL
smiles,measurement,setting,value
CN1CCN(c2ccc(Nc3ncc(C#N)c(Nc4ccccc4C(N)=O)n3)cc2)CC1.Cl [TCMDC-134116],pKd,AXL,6.58 and 6.53
same,pKd,CHEK1,7.04
same,pKd,ERN1,6.90
same,pKd,TAOK2,6.56

# From article PMC4774911, “Biochemical Screening of Five Protein Kinases from Plasmodium falciparum against 14,000 Cell-Active Compounds” (PLoS ONE, 2016)
